The target in this test is T1, FLAG-tagged full length PHD2 (Homo sapiens, UniProt Q9GZT9).
T1 construct: FLAG-tagged full length PHD2; FLAG; made in house; host or cells: baculovirus-infected Sf9 cells
T1 sequence (Q9GZT9 whole entry): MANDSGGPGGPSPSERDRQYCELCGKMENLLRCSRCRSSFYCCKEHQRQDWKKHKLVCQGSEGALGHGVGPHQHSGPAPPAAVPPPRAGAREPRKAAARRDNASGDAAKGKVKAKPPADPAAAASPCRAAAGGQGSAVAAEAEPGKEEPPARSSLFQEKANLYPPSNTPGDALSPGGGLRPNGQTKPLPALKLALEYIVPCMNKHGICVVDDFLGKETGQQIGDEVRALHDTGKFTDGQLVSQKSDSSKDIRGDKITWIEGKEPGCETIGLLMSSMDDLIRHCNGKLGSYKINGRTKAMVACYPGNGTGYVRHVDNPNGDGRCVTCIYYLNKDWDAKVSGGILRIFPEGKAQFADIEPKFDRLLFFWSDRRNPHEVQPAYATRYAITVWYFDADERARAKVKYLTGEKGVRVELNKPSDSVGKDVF
The experiment in a line: PHD2 inhibition assay (time resolved fluorescence, HIF-1α peptide hydroxylation, VHL detection). Type of test: biochemical. Conditions: 0.2 μM 2-oxoglutarate, 0.5 μM HIF-1α peptide, 2 hr at room temperature; read-out: PHD2 Activity (PHD2 binding activity expressed as IC50). As to the method: To each well of a 96-well plate was added 1 μL of test compound in DMSO and 20 μl of assay buffer (50 mM Tris pH 7.4/0.01% Tween-20/0.1 mg/ml bovine serum albumin/10 μM ferrous sulfate/1 mM sodium ascorbate/20 μg/ml catalase) containing 0.15 μg/ml FLAG-tagged full length PHD2 expressed in and purified from baculovirus-infected Sf9 cells. After a 30 min preincubation at room temperature, the enzymatic reactions were initiated by the addition of 4 μL of substrates (final concentrations of 0.2 μM 2-oxoglutarate and 0.5 μM HIF-1α peptide biotinyl-[…]).
`O=C(O)CNC(=O)c1c(O)c2c(n(Cc3ccc(Cl)nc3)c1=O)CSC2` [Example 1, N-({1-[(6-chloropyridin-3-yl)methyl]-4-hydroxy-2-oxo-1,2,5,7-tetrahydrothieno[3,4-b]pyridin-3-yl}carbonyl)glycine]: the IC50 was no more than 10 nM.

For the compound `O=C(O)CNC(=O)c1c(O)c2c(n(Cc3ccc(Br)cc3)c1=O)CSC2` [Example 2], the IC50 was no more than 10 nM.

Consider `N#Cc1ccc(Cn2c3c(c(O)c(C(=O)NCC(=O)O)c2=O)CSC3)cc1` [Example 3, N-{[1-(4-cyanobenzyl)-4-hydroxy-2-oxo-1,2,5,7-tetrahydrothieno[3,4-b]pyridin-3-yl]carbonyl}glycine], for which the IC50 is no more than 10 nM.

Take `O=C(O)CNC(=O)c1c(O)c2c(n(Cc3ccc(C(F)(F)F)cc3)c1=O)CSC2` [Example 4, N-({4-hydroxy-2-oxo-1-[4-(trifluoromethyl)benzyl]-1,2,5,7-tetrahydrothieno[3,4-b]pyridin-3-yl]carbonyl)glycine]: the IC50 was no more than 10 nM.

For the compound `O=C(O)CNC(=O)c1c(O)c2c(n(Cc3ccc(C(F)(F)F)nc3)c1=O)CSC2` [Example 5, N-[(4-hydroxy-2-oxo-1-{[6-(trifluoromethyl)pyridin-3-yl]methyl]-1,2,5,7-tetrahydrothieno[3,4-b]pyridin-3-yl)carbonyl]glycine], the IC50 was no more than 10 nM.

As to `CS(=O)(=O)c1ccc(Cn2c3c(c(O)c(C(=O)NCC(=O)O)c2=O)CSC3)cc1` [Example 6, N-({4-hydroxy-1-[4-(methylsulfonyl)benzyl]-2-oxo-1,2,5,7-tetrahydrothieno[3,4-d]pyridin-3-yl]carbonyl)glycine], the IC50 was no more than 10 nM.

For `O=C(O)CNC(=O)c1c(O)c2c(n(Cc3nc(-c4ccccc4)cs3)c1=O)CSC2` [Example 7, N-({4-hydroxy-2-oxo-1-[(4-phenyl-1,3-thiazol-2-yl)methyl]-1,2,5,7-tetrahydrothieno[3,4-b]pyridin-3-yl}carbonyl)glycine], the IC50 is no more than 10 nM.

For `CC(C)c1ccc(Cn2c3c(c(O)c(C(=O)NCC(=O)O)c2=O)CSC3)cc1` [Example 8, N-{[4-hydroxy-1-(4-isopropylbenzyl)-2-oxo-1,2,5,7-tetrahydrothieno[3,4-b]pyridin-3-yl]carbonyl]glycine], the IC50 was no more than 10 nM.

On to `CC(C)(C)c1ccc(Cn2c3c(c(O)c(C(=O)NCC(=O)O)c2=O)CSC3)cc1` [Example 9, N-{[1-(4-tert-butylbenzyl)-4-hydroxy-2-oxo-1,2,5,7-tetrahydrothieno[3,4-b]pyridin-3-yl]caxbonyl]glycine], for which the IC50 was no more than 10 nM.

With `O=C(O)CNC(=O)c1c(O)c2c(n(Cc3noc(-c4ccccc4)n3)c1=O)CSC2` [Example 10, N-({4-hydroxy-2-oxo-1-[(5-phenyl-1,2,4-oxadiazol-3-yl)methyl]-1,2,5,7-tetrahydrothieno[3,4-b]pyridin-3-yl]carbonyl)glycine], the IC50 was no more than 10 nM.

In the case of `O=C(O)CNC(=O)c1c(O)c2c(n(Cc3nc4ccccc4s3)c1=O)CSC2` [Example 11, N-{[1-(1,3-benzothiazol-2-ylmethyl)-4-hydroxy-2-oxo-1,2,5,7-tetrahydrothieno[3,4-b]pyridin-3-yl]carbonyl]glycine], the half-inhibitory concentration (IC50) was no more than 10 nM.

In the case of `O=C(O)CNC(=O)c1c(O)c2c(n(-c3ccc(Br)cc3)c1=O)CSC2` [Example 12, N-{[1-(4-bromophenyl)-4-hydroxy-2-oxo-1,2,5,7-tetrahydrothieno[3,4-b]pyridin-3-yl]carbonyl]glycine], the IC50 is no more than 10 nM.

Take `O=C(O)CNC(=O)c1c(O)c2c(n(Cc3cc(F)cc(C(F)(F)F)c3)c1=O)CSC2` [Example 13, N-({l-[3-fluoro-5-(trifluoromethyl)benzyl]-4-hydroxy-2-oxo-1,2,5,7-tetrahydrothieno[3,4-b]pyridin-3-yl]carbonyl)glycine]: the IC50 was 10 to 100 nM.

In the case of `O=C(O)CNC(=O)c1c(O)c2c(n(Cc3cccc(Cl)c3)c1=O)CSC2` [Example 14, N-{[1-(3-chlorobenzyl)-4-hydroxy-2-oxo-1,2,5,7-tetrahydrothieno[3,4-b]pyridin-3-yl]carbonyl}glycine], the IC50 is no more than 10 nM.

With `Cc1cc(Cl)ccc1Cn1c2c(c(O)c(C(=O)NCC(=O)O)c1=O)CSC2` [Example 15, N-{[1-(4-chloro-2-methylbenzyl)-4-hydroxy-2-oxo-1,2,5,7-tetrahydrothieno[3,4-b]pyridin-3-yl]carbonyl}glycine], the IC50 was no more than 10 nM.

As to `O=C(O)CNC(=O)c1c(O)c2c(n(Cc3ccc(Cl)cc3)c1=O)CSC2` [Example 16, N-{[1-(4-chlorobenzyl)-4-hydroxy-2-oxo-1,2,5,7-tetrahydrothieno[3,4-b]pyridin-3-yl]carbonyl}glycine], the IC50 is no more than 10 nM.

`CCc1ccc(Cn2c3c(c(O)c(C(=O)NCC(=O)O)c2=O)CSC3)cc1` [Example 17, N-{[1-(4-ethylbenzyl)-4-hydroxy-2-oxo-1,2,5,7-tetrahydrothieno[3,4-b]pyridin-3-yl]carbonyl}glycine]: the IC50 is no more than 10 nM.

Take `O=C(O)CNC(=O)c1c(O)c2c(n(Cc3ccc(Cl)c(C(F)(F)F)c3)c1=O)CSC2` [Example 18, N-({1-[4-chloro-3-(trifluoromethyl)benzyl]-4-hydroxy-2-oxo-1,2,5,7-tetrahydrothieno[3,4-b]pyridin-3-yl}carbonyl)glycine]: the IC50 is no more than 10 nM.

As for `O=C(O)CNC(=O)c1c(O)c2c(n(Cc3ccc(Cl)c(Cl)c3)c1=O)CSC2` [Example 19, N-{[1-(3,4-dichlorobenzyl)-4-hydroxy-2-oxo-1,2,5,7-tetrahydrothieno[3,4-b]pyridin-3-yl]carbonyl}glycine], the IC50 was no more than 10 nM.

In the case of `O=C(O)CNC(=O)c1c(O)c2c(n(Cc3ccc(OC(F)(F)F)cc3)c1=O)CSC2` [Example 20, N-({4-hydroxy-2-oxo-1-[4-(trifluoromethoxy)benzyl]-1,2,5,7-tetrahydrothieno[3,4-b]pyridin-3-yl}carbonyl)glycine], the IC50 is no more than 10 nM.

As for `O=C(O)CNC(=O)c1c(O)c2c(n(Cc3coc(-c4ccccc4)n3)c1=O)CSC2` [Example 21, N-({4-hydroxy-2-oxo-1-[(2-phenyl-1,3-oxazol-4-yl)methyl]-1,2,5,7-tetrahydrothieno[3,4-b]pyridin-3-yl}carbonyl)glycine], the IC50 was no more than 10 nM.

As for `O=C(O)CNC(=O)c1c(O)c2c(n(Cc3cc4ccccc4s3)c1=O)CSC2` [Example 22, N-{[1-(1-benzothien-2-ylmethyl)-4-hydroxy-2-oxo-1,2,5,7-tetrahydrothieno[3,4-b]pyridin-3-yl]carbonyl}glycine], the IC50 was no more than 10 nM.

On to `O=C(O)CNC(=O)c1c(O)c2c(n(Cc3ccc(-n4cccn4)cc3)c1=O)CSC2` [Example 23, N-({4-hydroxy-2-oxo-1-[4-(1H-pyrazol-1-yl)benzyl]-1,2,5,7-tetrahydrothieno[3,4-b]pyridin-3-yl}carbonyl)glycine], for which the IC50 was no more than 10 nM.

With `O=C(O)CNC(=O)c1c(O)c2c(n(Cc3cnn(-c4ccccc4)c3)c1=O)CSC2` [Example 24, N-({4-hydroxy-2-oxo-1-[(1-phenyl-1H-pyrazol-4-yl)methyl]-1,2,5,7-tetrahydrothieno[3,4-b]pyridin-3-yl}carbonyl)glycine], the IC50 is no more than 10 nM.

For the compound `Cc1ccc(-c2ccc(Cn3c4c(c(O)c(C(=O)NCC(=O)O)c3=O)CSC4)cc2)cc1` [Example 25, N-({4-hydroxy-1-[(4′-methylbiphenyl-4-yl)methyl]-2-oxo-1,2,5,7-tetrahydrothieno[3,4-b]pyridin-3-yl}carbonyl)glycine], the IC50 was no more than 10 nM.

Regarding `O=C(O)CNC(=O)c1c(O)c2c(n(Cc3cnc(-c4ccccc4F)cn3)c1=O)CSC2` [Example 26, N-[(1-{[5-(2-fluorophenyl)pyrazin-2-yl]methyl}-4-hydroxy-2-oxo-1,2,5,7-tetrahydrothieno[3,4-b]pyridin-3-yl)carbonyl]glycine], the IC50 was no more than 10 nM.

For `O=C(O)CNC(=O)c1c(O)c2c(n(Cc3ccc(-c4ccn[nH]4)cc3)c1=O)CSC2` [Example 27, N-({4-hydroxy-2-oxo-1-[4-(1H-pyrazol-5-yl)benzyl]-1,2,5,7-tetrahydrothieno[3,4-b]pyridin-3-yl}carbonyl)glycine], the IC50 was no more than 10 nM.

`CC(=O)c1ccc(-c2ccc(Cn3c4c(c(O)c(C(=O)NCC(=O)O)c3=O)CSC4)cc2)cc1` [Example 28, N-({1-[(4′-acetylbiphenyl-4-yl)methyl]-4-hydroxy-2-oxo-1,2,5,7-tetrahydrothieno[3,4-b]pyridin-3-yl}carbonyl)glycine]: the IC50 was no more than 10 nM.

For the compound `O=C(O)CNC(=O)c1c(O)c2c(n(Cc3ccc(-c4ccccc4)cc3)c1=O)CSC2` [Example 29, N-{[1-(biphenyl-4-ylmethyl)-4-hydroxy-2-oxo-1,2,5,7-tetrahydrothieno[3,4-b]pyridin-3-yl]carbonyl}glycine], the IC50 is no more than 10 nM.

Regarding `O=C(O)CNC(=O)c1c(O)c2c(n(Cc3ccc(-c4ccc(Cl)cc4)cc3)c1=O)CSC2` [Example 30, N-({1-[(4′-chlorobiphenyl-4-yl)methyl]-4-hydroxy-2-oxo-1,2,5,7-tetrahydrothieno[3,4-b]pyridin-3-yl}carbonyl)glycine], the IC50 was no more than 10 nM.

Regarding `Cc1n[nH]c(C)c1-c1ccc(Cn2c3c(c(O)c(C(=O)NCC(=O)O)c2=O)CSC3)cc1` [Example 31, N-({1-[4-(3,5-dimethyl-1H-pyrazol-4-yl)benzyl]-4-hydroxy-2-oxo-1,2,5,7-tetrahydrothieno[3,4-b]pyridin-3-yl}carbonyl)glycine], the IC50 was no more than 10 nM.

For the compound `O=C(O)CNC(=O)c1c(O)c2c(n(Cc3ccc(Oc4ccc(F)cc4)cc3)c1=O)CSC2` [Example 32, N-({l-[4-(4-fluorophenoxy)benzyl]-4-hydroxy-2-oxo-1,2,5,7-tetrahydrothieno[3,4-b]pyridin-3-yl}carbonyl)glycine], the IC50 is no more than 10 nM.

The values above are taken from patent US8445680B2, “Tetrahydrothieno pyridines” (Merck Sharp & Dohme Corp., priority 2008, dated 2013).
